# Reference: ChEMBL document CHEMBL6109155, “Discovery of Phenylacylpiperidine as Novel sEH Inhibitors through Scaffold Hopping of Natural Stilbene” (J Med Chem, 2025)
# Active and inactive are the calls of the source. The calls are words filed in the database; no cut-off is given here.
# What was measured:
# Mus musculus [1] = test: Anti-inflammatory activity in BALB/c mouse model of carrageenan-induced paw edema assessed as inhibition of paw swelling at 20 mg/kg, po measured for 0.5 hrs relative to control; format: functional; conditions: Mus musculus, BALB/c
# Mus musculus [2] = test: Anti-inflammatory activity in BALB/c mouse model of carrageenan-induced paw edema assessed as inhibition of paw swelling at 10 mg/kg, po measured up to 6 hrs relative to control; format: functional; conditions: Mus musculus, BALB/c
# Mus musculus [3] = test: Anti-inflammatory activity in BALB/c mouse model of carrageenan-induced paw edema assessed as inhibition of paw swelling at 1 mg/kg, po measured up to 6 hrs relative to control; format: functional
# Mus musculus [4] = test: Anti-inflammatory activity in BALB/c mouse model of carrageenan-induced paw edema assessed as inhibition of paw swelling at 10 mg/kg, po measured after 6 hrs relative to control; format: functional
# Mus musculus [5] = test: Anti-inflammatory activity in BALB/c mouse model of carrageenan-induced paw edema assessed as increase in ratio of 14,15-EET to DHET plasma levels at 10 mg/kg, po measured after 6 hrs relative to control; format: functional
# Mus musculus [6] = test: Anti-inflammatory activity in BALB/c mouse model of carrageenan-induced paw edema assessed as decrease in plasma 11,12-DHET levels at 10 mg/kg, po measured after 6 hrs relative to control; format: functional; parameters: scale not given: the % may be the effect or the level left
# Rattus norvegicus [7] = test: Anti-inflammatory activity in Sprague-Dawley rat model of CFA-induced rheumatoid arthritis assessed as improvement in joint cavity at 10 mg/kg, po administered daily measured after 19 days by H and E staining based analysis; format: functional, organism-based; conditions: time 19.0 day
# Rattus norvegicus [8] = test: Anti-inflammatory activity in Sprague-Dawley rat model of CFA-induced rheumatoid arthritis assessed as decrease in swelling degree of right paw at 10 mg/kg, po administered daily measured after 4 days; format: functional, organism-based; conditions: time 4.0 day
# Rattus norvegicus [9] = test: Anti-inflammatory activity in Sprague-Dawley rat model of CFA-induced rheumatoid arthritis assessed as decrease in swelling degree of left paw at 10 mg/kg, po administered daily measured after 16 to 19 days; format: functional, organism-based; conditions: time 16-19 day
# Rattus norvegicus [10] = test: Anti-inflammatory activity in Sprague-Dawley rat model of CFA-induced rheumatoid arthritis assessed as decrease in paw swelling at 10 mg/kg, po administered daily measured after 7 days; format: functional, organism-based; conditions: time 7.0 day
# Rattus norvegicus [11] = test: Anti-inflammatory activity in Sprague-Dawley rat model of CFA-induced rheumatoid arthritis assessed as improvement in body weight at 10 mg/kg, po administered daily measured for 19 days; format: functional, organism-based; conditions: time 19.0 day
# Rattus norvegicus [12] = test: Anti-inflammatory activity in Sprague-Dawley rat model of CFA-induced rheumatoid arthritis assessed as smooth cartilage surface at 10 mg/kg, po administered daily measured after 19 days by H and E staining based analysis; format: functional, organism-based; conditions: time 19.0 day
# Rattus norvegicus [13] = test: Anti-inflammatory activity in Sprague-Dawley rat model of CFA-induced rheumatoid arthritis assessed as […] in connective tissue proliferation in synovial tissue at 10 mg/kg, po administered daily measured after 19 days by H and E staining based analysis; format: functional, organism-based; conditions: time 19.0 day
# Rattus norvegicus [14] = test: Anti-inflammatory activity in Sprague-Dawley rat model of CFA-induced rheumatoid arthritis assessed as decrease in lymphocytes infiltration in synovial tissue at 10 mg/kg, po administered daily measured after 19 days by H and E staining based analysis; format: functional, organism-based; conditions: time 19.0 day
# Rattus norvegicus [15] = test: Anti-inflammatory activity in Sprague-Dawley rat model of CFA-induced rheumatoid arthritis assessed as decrease in plasma IL-6 level at 10 mg/kg, po administered daily measured after 19 days relative to control; format: functional; parameters: scale not given: the % may be the effect or the level left; conditions: time 19 day
# Rattus norvegicus [16] = test: Anti-inflammatory activity in Sprague-Dawley rat model of CFA-induced rheumatoid arthritis assessed as BV value at 10 mg/kg, po administered daily measured after 19 days by micro-CT analysis (reference value: 37.091 mm3); format: functional; conditions: time 19 day
# Rattus norvegicus [17] = test: Anti-inflammatory activity in Sprague-Dawley rat model of CFA-induced rheumatoid arthritis assessed as increase in plasma 8,9-EET level at 10 mg/kg, po administered daily measured after 19 days relative to control; format: functional; conditions: time 19 day
# Rattus norvegicus [18] = test: Anti-inflammatory activity in Sprague-Dawley rat model of CFA-induced rheumatoid arthritis assessed as increase in plasma 14,15-EET level at 10 mg/kg, po administered daily measured after 19 days relative to control; format: functional; conditions: time 19 day
# Rattus norvegicus [19] = test: Anti-inflammatory activity in Sprague-Dawley rat model of CFA-induced rheumatoid arthritis assessed as increase in ratio of plasma 14,15-EET to DHET levels at 10 mg/kg, po administered daily measured after 19 days relative to control; format: functional; conditions: time 19 day
# [20] = In vivo inhibition of liver sEH enzyme activity in Sprague-Dawley rat model of CFA-induced rheumatoid arthritis at 10 mg/kg, po administered daily measured after 19 days relative to control; format: functional; conditions: 456 h, time 19 day
# Mus musculus [21] = test: Anti-inflammatory activity in CD-1 mouse model of cerulein-induced acute pancreatitis assessed as decrease in pancreatic edema at 10 mg/kg, ip drug administered at 30 mins and 2.5 hrs post-first cerulein injection and measured after 6 hrs post-first cerulein injection by H and E staining based analysis; format: functional, organism-based; conditions: time 3.5-5.5 hrs
# Mus musculus [22] = test: Anti-inflammatory activity in CD-1 mouse model of cerulein-induced acute pancreatitis assessed as decrease in plasma TNF-alpha level at 10 mg/kg, ip drug administered at 30 mins and 2.5 hrs post-first cerulein injection and measured after 6 hrs post-first cerulein injection; format: functional, organism-based; conditions: time 3.5-5.5 hrs
# Mus musculus [23] = test: Anti-inflammatory activity in CD-1 mouse model of cerulein-induced acute pancreatitis assessed as increase in ratio of plasma 11,12-EET/DHET level at 10 mg/kg, ip drug administered at 30 mins and 2.5 hrs post-first cerulein injection and measured after 6 hrs post-first cerulein injection (reference value: 69.8 to 77.3 %); format: functional; conditions: time 3.5-5.5 hrs
# [24] = AUC (0 to 24 hrs) in liver of C57BL/6J mouse at 20 mg/kg, po measured for 24 hrs; format: ADME, organism-based
# [25] = Ratio of Cmax in liver to plasma in C57BL/6J mouse at 20 mg/kg, po measured for 24 hrs; format: ADME, organism-based; conditions: liver and plasma
# [26] = AUC (0 to 24 hrs) in brain of C57BL/6J mouse at 20 mg/kg, po measured for 24 hrs; format: ADME, organism-based
# [27] = Cmax in kidney of C57BL/6J mouse at 20 mg/kg, po measured for 24 hrs; format: ADME, organism-based
# [28] = Ratio of Cmax in kidney to plasma in C57BL/6J mouse at 20 mg/kg, po measured for 24 hrs; format: ADME, organism-based; conditions: kidney and plasma
# [29] = Half life in Sprague-Dawley rat at 20 mg/kg, po measured for 24 hrs; format: ADME, organism-based; conditions: in vivo
# [30] = Oral bioavailability in Sprague-Dawley rat at 20 mg/kg measured for 24 hrs; format: ADME, organism-based; conditions: in vivo
# [31] = Volume of distribution in Sprague-Dawley rat at 5 mg/kg, iv measured for 24 hrs; format: ADME, organism-based; conditions: in vivo
structure (smiles),measurement,setting,value
COc1cc(CC(=O)N2CCC(NC(=O)NCc3ccc(OC(F)(F)F)cc3)CC2)cc(OC)c1,inhibition in vivo at 20 mg/kg,Mus musculus [1],29.5%
same,inhibition in vivo at 10 mg/kg,Mus musculus [2],38.8%
same,inhibition in vivo at 1 mg/kg,Mus musculus [3],34%
same,inhibition in vivo at 10 mg/kg,Mus musculus [4],20.8%
same,Activity,Mus musculus [5],677%
same,Activity,Mus musculus [6],55.1%
same,Activity,Rattus norvegicus [7],Active
same,Activity,Rattus norvegicus [8],Active
same,Activity,Rattus norvegicus [9],Active
same,Activity,Rattus norvegicus [10],Active
same,Activity,Rattus norvegicus [11],Active
same,Activity,Rattus norvegicus [12],Active
same,Activity,Rattus norvegicus [13],Active; Minimal Connective Tissue Proliferation Was Observed
same,Activity,Rattus norvegicus [14],Active; Small Lymphocytes Infiltration Was Observed
same,Activity,Rattus norvegicus [15],60%
same,Activity,Rattus norvegicus [16],36.234 mm3
same,Activity,Rattus norvegicus [17],105%
same,Activity,Rattus norvegicus [18],175%
same,Activity,Rattus norvegicus [19],463%
same,inhibition in vivo at 10 mg/kg,[20],24.7%
same,Activity,Mus musculus [21],Active
same,Activity,Mus musculus [22],Active
same,Activity,Mus musculus [23],552%
same,AUC(0-t) at 24 h,[24],27100 ng·h/mL
same,Kp at 24 h,[25],6.71
same,AUC(0-t) at 24 h,[26],11 ng·h/mL
same,Cmax,[27],4540 ng/g
same,Kp at 24 h,[28],9.43
same,half-life,[29],1.89 h
same,bioavailability,[30],8.3%
same,Vd,[31],1.39 L/kg
